Test results taken from patent US5948786A, “Piperidinylpyrimidine derivatives” (Sumitomo Pharmaceuticals Company, Limited, priority 1996, dated 1999).

test system: TNF α production from mouse macrophages; experiment: Inhibitory activity of compound on TNF α Production from mouse macrophages (LPS-induced PEC's); format: cell-based; settings: Macrophage, LPS 10 μg/ml, 18 hours
Method: BALB/c mice (female, 5-7 weeks old, Charles River Japan, Tokyo, Japan) were injected i.p. with 1 ml of 2.4% thioglycollate broth. After 4 days, the mice were sacrificed. Peritoneal exudated cells (PEC's) were collected from the peritoneal cavity by washing with minimum essential medium (MEM, Handai biseibutubyou kenkyukai, Osaka, Japan) containing 5 U/ml heparin, 1% fetal bovine serum (FBS, Filtron, Victoria, Australia) and antibiotics. The cells were washed two times with MEM, suspended with MEM containing 10% FBS (complete MEM, cMEM) and seeded into 96-well culture plates (Costar, Cambridge, Mass., USA) at 2×10^5 cells/well. The cells were incubated for 1 hour at 37° C. in a humidified 5% CO2 incubator and washed two times to remove non-adherent cells.
(§1) TNF α was induced by 10 μg/ml of LPS (E. coli O111B4, DIFCO, Detroit, Mich., USA) the cells were cultured for 18 hours at 37° C. A compound of the present invention was dissolved in DMSO and added to the culture simultaneously with LPS. The final DMSO concentration was below 0.1%. The TNF α concentration in supernatant and recombinant mouse TNF α standard (rm-TNF α, Genzyme, Mass., USA) were incubated overnight at 4° C. in a 96-well plate coated with anti-mouse TNF α monoclonal antibody (PharMingen, San Diego, Calif., USA) that previously had been blocked with 10% FBS. Each well of the plate first was incubated at room temperature with biotinylated anti-mouse TNF α polyclonal antibodies (PharMingen) for 45 minutes, then with peroxidase-conjugated streptavidin (Kirkegaard & Perry Laboratories Inc., Gaitherburg, Md., USA) for 30 minutes. After each incubation, the plate was washed 4 to 8 times with PBS containing 0.2% Tween 20. TMB (Kirkegaard & Perry Laboratories Inc.) was the peroxidase substrate used and, the absorbance of each well was quantified at 450 nm by a microplatereader (Molecular Devices Corp., CA, USA). TNF α levels in the supernatant were quantified with rm-TNF α as the standard.

| Compound | inhibition at 30 µM [%] |
| --- | --- |
| COc1ccc(C(=O)N2CCC(c3nc(N)nc4ccccc34)CC2)cc1OC [Example 56] | -28 |
| CCCCCCCC(=O)N1CCC(c2cc(Cc3ccc(Cl)cc3)nc(N)n2)CC1 [Example 247] | 21 |
| Nc1nc(C2CCN(C(=O)Cc3ccc([N+](=O)[O-])cc3)CC2)c2ccccc2n1 [Example 88] | 26 |
| COc1ccc(Cc2cc(C3CCN(C(=O)c4cccc(Cl)c4)CC3)nc(N)n2)cc1 [Example 182] | 46 |
| CCCCCCCC(=O)N1CCC(c2nc(N)nc3ccc(Cl)cc23)CC1 [Example 127] | 48 |
| CCCCCCCCC(=O)N1CCC(c2cc(-c3ccc(OC)cc3)nc(N)n2)CC1 [Example 155] | 76 |
| Nc1nc(C2CCN(C(=O)c3ccc(Cl)cc3Cl)CC2)c2ccccc2n1 [Example 59] | 56 |
| COc1ccc(Cc2cc(C3CCN(C(=O)c4ccc(OC)c(OC)c4)CC3)nc(N)n2)cc1 [Example 201] | 46 |
| NCCCCCCCC(=O)N1CCC(c2nc(N)nc3ccccc23)CC1 [Example 285, 2-amino-4-[1-(8-aminooctanoyl)-4-piperidinyl]quinazoline] | 27 |
| COc1ccc(Cc2cc(C3CCN(C(=O)c4c(Cl)ccc(Cl)c4Cl)CC3)nc(N)n2)cc1 [Example 219] | 75 |
| CCCCCC(=O)N1CCC(c2cc(Cc3ccc(OC)cc3)nc(N)n2)CC1 [Example 166] | 48 |
| Nc1nc(Cc2ccc(Cl)cc2)cc(C2CCN(C(=O)c3ccccc3)CC2)n1 [Example 7, 2-Amino-4-(1-benzoyl-4-piperidinyl)-6-(4-chlorophenylmethyl)pyrimidine] | 58 |
| Nc1nc(-c2ccc(Cl)cc2)cc(C2CCN(C(=O)Cc3ccc(Cl)cc3)CC2)n1 [Example 152] | 90 |
| COc1ccc(CC(=O)N2CCC(c3nc(N)nc4ccc(Cl)cc34)CC2)cc1 [Example 131] | 23 |
| Nc1nc(C2CCN(C(=O)c3ccc(Cl)cc3)CC2)c2ccccc2n1 [Example 37] | 4 |
| Nc1nc(C2CCN(C(=O)c3cccc4ccccc34)CC2)c2ccccc2n1 [Example 66] | 32 |
| Nc1nc(C2CCN(C(=O)Cc3ccccc3Cl)CC2)c2ccccc2n1 [Example 80] | 28 |
| COc1ccc(-c2cc(C3CCN(C(=O)c4ccccc4)CC3)nc(N)n2)cc1 [Example 5, 2-Amino-4-(1-benzoyl-4-piperidinyl)-6-(4-methoxyphenyl)pyrimidine] | 57 |
| COc1ccc2nc(N)nc(C3CCN(C(=O)Cc4ccc([N+](=O)[O-])cc4)CC3)c2c1 [Example 126] | 43 |
| CCCCCCCC(=O)N1CCC(c2nc(N)nc3ccc(OC)cc23)CC1 [Example 104] | 50 |
| CCCCCCCCCC(=O)N1CCC(c2cc(Cc3ccc(OC)cc3)nc(N)n2)CC1 [Example 170] | 11 |
| COc1ccc(Cc2cc(C3CCN(C(=O)Cc4ccc([N+](=O)[O-])cc4[N+](=O)[O-])CC3)nc(N)n2)cc1 [Example 242] | 31 |
| COc1ccc(CC(=O)N2CCC(c3cc(Cc4ccc(OC)cc4)nc(N)n3)CC2)cc1 [Example 224] | 73 |
| Nc1nc(C2CCN(C(=O)Cc3ccc([N+](=O)[O-])cc3)CC2)c2cc(Cl)ccc2n1 [Example 133] | 35 |
| COc1ccc(Cc2cc(C3CCN(C(=O)c4ccc(Cl)cc4Cl)CC3)nc(N)n2)cc1 [Example 204] | 84 |
| CCCCCCC(=O)N1CCC(c2nc(N)nc3ccccc23)CC1 [Example 20] | 63 |
| COc1ccc2nc(N)nc(C3CCN(C(=O)Cc4ccc(Cl)cc4)CC3)c2c1 [Example 123] | 28 |
| CC(C)(C)OC(=O)NCCCCCCCCCCC(=O)N1CCC(c2nc(N)nc3ccccc23)CC1 [Example 29, 2-amino-4-[1-(11-t-butoxycarbonylaminoundecanoyl)-4-piperidinyl]quinazoline] | 100 |
| CCCCCCCCC(=O)N1CCC(c2cc(-c3ccc(Cl)cc3)nc(N)n2)CC1 [Example 148] | 68 |

test system: TNF α production from human peripheral blood mononuclear cells (PBMC); experiment: Inhibitory activity of compound on TNF α production from PBMC; format: cell-based; settings: not given
Method: as §1, with “The final DMSO concentration was below 0.1%. The TNF α concentration in supernatant and recombinant mouse TNF α standard (rm-TNF α, Genzyme, Mass., USA) were incubated overnight at 4° C. in a 96-well plate coated with anti-mouse TNF α monoclonal antibody (PharMingen, San Diego, Calif., USA) that previously had been blocked with 10% FBS.” left out, “standard. Inhibitory activity of TNF α production was also quantified using human peripheral blood mononuclear cells(PBMC) instead of PEC's. Results are shown in table 9, 10, 11, 12, 13, 14, 15, 16, 17, 18, 19 and 20.” for “standard.”

| Compound | inhibition at 30 µM [%] |
| --- | --- |
| Nc1nc(Cc2ccccc2)cc(C2CCN(C(=O)c3ccc4c(c3)OCO4)CC2)n1 [Example 304] | 83 |
| COc1ccc(Cc2cc(C3CCN(C(=O)c4ccc(OC)c(O)c4)CC3)nc(N)n2)cc1 [Example 301] | 88 |
| Nc1nc(Cc2ccc(Br)cc2)cc(C2CCN(C(=O)c3ccc4c(c3)OCO4)CC2)n1 [Example 303, 2-Amino-4-(4-bromophenylmethyl)-6-[1-(3,4-methylenedioxybenzoyl)-4-piperidinyl]pyrimidine] | 92 |
| Nc1nc(Cc2ccc(O)cc2)cc(C2CCN(C(=O)c3ccc4c(c3)OCO4)CC2)n1 [Example 315, 2-Amino-4-(4-hydroxyphenylmethyl)-6-[1-(3,4-methylenedioxybenzoyl)-4-piperidinyl] pyrimidine] | 86 |
| Nc1nc(Cc2ccc(Cl)c(Cl)c2)cc(C2CCN(C(=O)c3ccc4c(c3)OCO4)CC2)n1 [Example 311] | 69 |
| COc1ccc(Cc2cc(C3CCN(C(=O)c4ccc(O)c(O)c4)CC3)nc(N)n2)cc1 [Example 302, 2-Amino-4-[1-(3,4-dihydroxybenzoyl)-4-piperidinyl]-6-(4-methoxyphenylmethyl) pyrimidine] | 86 |
| COc1ccc(Cc2cc(C3CCN(C(=O)c4ccc(O)c(OC)c4)CC3)nc(N)n2)cc1 [Example 300] | 80 |
| COc1ccc(Cc2cc(C3CCN(C(=O)c4ccc5[nH]ccc5c4)CC3)nc(N)n2)cc1 [Example 290] | 101 |
| COc1ccc(Cc2cc(C3CCN(C(=O)c4ccc5c(c4)OCCO5)CC3)nc(N)n2)cc1 [Example 291] | 88 |
| COc1ccc(Cc2cc(C3CCN(C(=O)c4ccc5[nH]cnc5c4)CC3)nc(N)n2)cc1 [Example 289] | 93 |
| COc1ccc(Cc2cc(C3CCN(C(=O)c4ccc(F)c(F)c4)CC3)nc(N)n2)cc1 [Example 292] | 66 |

test system: Tat induced HIV-1 LTR-CAT gene expression in Jurkat cells; experiment: Tat induced HIV-1 LTR-CAT gene expression in Jurkat cells; format: cell-based; settings: Homo sapiens, Tat (pSV-Tat), 24 hours
Method: p469, HIV-1 LTR driven CAT and pSV-Tat, Tat-expression vector were kindly provided from Dr. Gary J. Nabel (Nature Vol. 326, 711(1987))
RPMI 1640 medium (Life Technologies, Grand Island, N.Y., USA) was supplemented with heat-inactivated fetal calf serum (FBS; Sigma, St. Louis, Mo., USA).
Human T lymphoma cell line, Jurkat, was cultured in medium described above Transfection;
Introduction of plasmid DNA into cells was carried out according to the method described in Chiang, J. Li et al., Proc. Natl. Acad. Sci. Vol. 92, 5461-5464 (1995). Briefly, the cells were suspended with the medium at 2×10^7 cells/ml followed by addition 1 μg of p469 and 0.5 μg of DEAE-dextran (Sigma). In some experiments the cells were co-transfected with 0.5 μg of pSV-Tat. After 10 minutes incubation at room temperature with occasionally mixing, the cells were pulsed with electroporation apparatus at 140 V. The cells were re-suspended with the fresh medium and cultured for 20 hours at 37° C.
A compound tested was dissolved in dimethylsulfoxide at 100 mM as a stock solution. The aliquots of the stock solution were kept frozen at -20° C. Jurkat cells transfected with p469 were treated with 10 ng/ml of phorbol 12-myristate 13-acetate (PMA; Sigma) to activate HIV-1-LTR directed CAT gene transcription in the presence of the compound. In the case of cells transfected with p469 and pSV-Tat, they were simply treated with the compound. After the cells were cultured for an additional 24 hours at 37° C., the cells were washed 2 times with phosphate-buffered saline and lysed in 50 mM Tris-HCl plus 15% glycerol with repeated cycles of freeze and thaw. The cell lysates were clarified by centrifugation followed by determination of protein concentration by Bradford method (Bio-Rad, Hercules, Calif., USA). Measurement of a CAT activity in cell lysates was carried out according to a similar method described in Fridovich-Keil J. L. et. al., Cell Growth and Differentiation, Vol. 2, 67-76(1991). Equal amount (30 μg of protein) of cell lysates was incubated at 37° C. with 35 μg of acetyl co-enzyme A (GIBCO/BRL, Grand Island, Mo., USA) and 0.1 μCi of 14C-chloramphenicol (Dupont, NEN Boston, Mass., USA) in […] solution for 2 hours. Acetyl-14C-chloramphenicol was extracted with 9 volumes of ethyl acetate and fractionated on a TLC gel with 1:19 (v/v) in methanol/chloroform. The CAT activity was detected by autoradiography and quantified by an Imaging Densitometer (model GS-700; Bio-Rad).

| Compound | inhibition at 5 µM [%] |
| --- | --- |
| Nc1nc(Cc2ccccc2)cc(C2CCN(C(=O)c3ccc4c(c3)OCO4)CC2)n1 [Example 304] | 44 |
| Nc1nc(Cc2ccc(Br)cc2)cc(C2CCN(C(=O)c3ccc4c(c3)OCO4)CC2)n1 [Example 303, 2-Amino-4-(4-bromophenylmethyl)-6-[1-(3,4-methylenedioxybenzoyl)-4-piperidinyl]pyrimidine] | 65 |
| Nc1nc(Cc2ccc(Cl)c(Cl)c2)cc(C2CCN(C(=O)c3ccc4c(c3)OCO4)CC2)n1 [Example 311] | 63 |
